What was measured:
[1] = test system: K. pneumoniae H521 producing KPC, SHV and TEM beta-lactamase enzymes; test: Time kill study against clinical isolate of K. pneumoniae H521; assay type: cell-based; conditions: for Bacterial count (Log10 CFU/ml) 0 hour: 0 hour (starting inoculum); for Change in Log10 CFU/ml over 0 hour count after 8 hours: positive = increase; for Effect on bacterial counts when used alone: throughout the duration of the study
Experimental: (§1) The killing effect of the combinations according to invention was studied by performing time kill studies. In a typical time kill study, the freshly grown cultures were diluted to the required cell density (initial starting inoculum) in Cation adjusted Muller Hinton broth medium (BD, USA). The antibacterial agents (either alone or in combination) at the required concentrations were added into the culture-containing medium. The samples were incubated under shaking condition (120 rpm) at 37° C. Enumeration of viable bacterial count was done every 2 hour by diluting in normal saline and plating on to the Tryptic Soya Agar plates (BD, USA). The plates were incubated for 24 hours to arrive at the viable bacterial count. The results are expressed in terms of log10 CFU per ml. In general, the decrease of 1 log10 CFU/ml corresponds to 90% killing of bacteria. Similarly, 2 log10 CFU/ml reductions indicates to 99% killing of bacteria and 3 log10 CFU/ml reductions is equal to 99.9% killing of bacteria.
K. pneumoniae H521 produces resistant KPC, SHV and TEM beta-lactamase enzymes.

[2] = test system: E. coli M50 producing CMY 6, DHA-1/2 beta-lactamase enzymes; test: Time kill study against clinical isolate of E. coli M50; assay type: cell-based; conditions: for Bacterial count (Log10 CFU/ml) 0 hour: 0 hour (starting inoculum); for Effect on bacterial counts when used alone: throughout the duration of the study
Experimental: as §1
E. coli M50 produces resistant CMY 6, DHA-1/2 beta-lactamase enzymes.

[3] = agent alone 4 mcg/ml, negative = reduction

C=CC1=C(C(=O)O)N2C(=O)[C@@H](NC(=O)/C(=N\OCC(=O)O)c3csc(N)n3)[C@H]2SC1 [Cefixime]
Bacterial count (Log10 CFU/ml) 0 hour ([1]; agent alone 4 mcg/ml): 7.18 Log10 CFU/ml | Bacterial count (Log10 CFU/ml) 2 hour ([1]; agent alone 4 mcg/ml): 8.26 Log10 CFU/ml | Bacterial count (Log10 CFU/ml) 4 hour ([1]; agent alone 4 mcg/ml): 8.85 Log10 CFU/ml | Bacterial count (Log10 CFU/ml) 6 hour ([1]; agent alone 4 mcg/ml): 8.98 Log10 CFU/ml | Bacterial count (Log10 CFU/ml) 8 hour ([1]; agent alone 4 mcg/ml): 8.95 Log10 CFU/ml | Change in Log10 CFU/ml over 0 hour count after 8 hours ([1]; agent alone 4 mcg/ml): 1.77 Log10 CFU/ml | Bacterial count (Log10 CFU/ml) 0 hour ([2]; agent alone 4 mcg/ml): 7.14 Log10 CFU/ml | Bacterial count (Log10 CFU/ml) 2 hour ([2]; agent alone 4 mcg/ml): 8.95 Log10 CFU/ml | Bacterial count (Log10 CFU/ml) 4 hour ([2]; agent alone 4 mcg/ml): 8.40 Log10 CFU/ml | Bacterial count (Log10 CFU/ml) 6 hour ([2]; agent alone 4 mcg/ml): 8.90 Log10 CFU/ml | Bacterial count (Log10 CFU/ml) 8 hour ([2]; agent alone 4 mcg/ml): 8.65 Log10 CFU/ml | Change in Log10 CFU/ml over 0 hour count after 8 hours [2, 3]: 1.51 Log10 CFU/ml

COCC1=C(C(=O)O)N2C(=O)[C@@H](NC(=O)/C(=N\OC)c3csc(N)n3)[C@H]2SC1 [Cefpodoxime]
Bacterial count (Log10 CFU/ml) 0 hour ([1]; agent alone 4 mcg/ml): 7.18 Log10 CFU/ml | Bacterial count (Log10 CFU/ml) 2 hour ([1]; agent alone 4 mcg/ml): 8.60 Log10 CFU/ml | Bacterial count (Log10 CFU/ml) 4 hour ([1]; agent alone 4 mcg/ml): 8.74 Log10 CFU/ml | Bacterial count (Log10 CFU/ml) 6 hour ([1]; agent alone 4 mcg/ml): 8.93 Log10 CFU/ml | Bacterial count (Log10 CFU/ml) 8 hour ([1]; agent alone 4 mcg/ml): 8.81 Log10 CFU/ml | Change in Log10 CFU/ml over 0 hour count after 8 hours ([1]; agent alone 4 mcg/ml): 1.63 Log10 CFU/ml | Bacterial count (Log10 CFU/ml) 0 hour ([2]; agent alone 4 mcg/ml): 7.14 Log10 CFU/ml | Bacterial count (Log10 CFU/ml) 2 hour ([2]; agent alone 4 mcg/ml): 8.18 Log10 CFU/ml | Bacterial count (Log10 CFU/ml) 4 hour ([2]; agent alone 4 mcg/ml): 8.88 Log10 CFU/ml | Bacterial count (Log10 CFU/ml) 6 hour ([2]; agent alone 4 mcg/ml): 8.95 Log10 CFU/ml | Bacterial count (Log10 CFU/ml) 8 hour ([2]; agent alone 4 mcg/ml): 8.40 Log10 CFU/ml | Change in Log10 CFU/ml over 0 hour count after 8 hours [2, 3]: 1.26 Log10 CFU/ml

Nc1nc(/C(=C/CC(=O)O)C(=O)N[C@@H]2C(=O)N3C(C(=O)O)=CCS[C@H]23)cs1 [Ceftibuten]
Bacterial count (Log10 CFU/ml) 0 hour ([1]; agent alone 4 mcg/ml): 7.18 Log10 CFU/ml | Bacterial count (Log10 CFU/ml) 2 hour ([1]; agent alone 4 mcg/ml): 8.18 Log10 CFU/ml | Bacterial count (Log10 CFU/ml) 4 hour ([1]; agent alone 4 mcg/ml): 8.88 Log10 CFU/ml | Bacterial count (Log10 CFU/ml) 6 hour ([1]; agent alone 4 mcg/ml): 8.40 Log10 CFU/ml | Bacterial count (Log10 CFU/ml) 8 hour ([1]; agent alone 4 mcg/ml): 8.60 Log10 CFU/ml | Change in Log10 CFU/ml over 0 hour count after 8 hours ([1]; agent alone 4 mcg/ml): 1.42 Log10 CFU/ml | Effect on bacterial counts when used alone [1]: did not reduce the bacterial counts | Bacterial count (Log10 CFU/ml) 0 hour ([2]; agent alone 4 mcg/ml): 7.14 Log10 CFU/ml | Bacterial count (Log10 CFU/ml) 2 hour ([2]; agent alone 4 mcg/ml): 7.90 Log10 CFU/ml | Bacterial count (Log10 CFU/ml) 4 hour ([2]; agent alone 4 mcg/ml): 8.40 Log10 CFU/ml | Bacterial count (Log10 CFU/ml) 6 hour ([2]; agent alone 4 mcg/ml): 8.98 Log10 CFU/ml | Bacterial count (Log10 CFU/ml) 8 hour ([2]; agent alone 4 mcg/ml): 8.93 Log10 CFU/ml | Change in Log10 CFU/ml over 0 hour count after 8 hours [2, 3]: 1.79 Log10 CFU/ml | Effect on bacterial counts when used alone [2]: did not reduce the bacterial counts

CO/N=C(\C(=O)N[C@@H]1C(=O)N2C(C(=O)O)=C(COC(N)=O)CS[C@H]12)c1ccco1 [Cefuroxime]
Bacterial count (Log10 CFU/ml) 0 hour ([1]; agent alone 4 mcg/ml): 7.18 Log10 CFU/ml | Bacterial count (Log10 CFU/ml) 2 hour ([1]; agent alone 4 mcg/ml): 8.48 Log10 CFU/ml | Bacterial count (Log10 CFU/ml) 4 hour ([1]; agent alone 4 mcg/ml): 8.70 Log10 CFU/ml | Bacterial count (Log10 CFU/ml) 6 hour ([1]; agent alone 4 mcg/ml): 8.78 Log10 CFU/ml | Bacterial count (Log10 CFU/ml) 8 hour ([1]; agent alone 4 mcg/ml): 8.60 Log10 CFU/ml | Change in Log10 CFU/ml over 0 hour count after 8 hours ([1]; agent alone 4 mcg/ml): 1.42 Log10 CFU/ml | Effect on bacterial counts when used alone [1]: did not reduce the bacterial counts | Bacterial count (Log10 CFU/ml) 0 hour ([2]; agent alone 4 mcg/ml): 7.14 Log10 CFU/ml | Bacterial count (Log10 CFU/ml) 2 hour ([2]; agent alone 4 mcg/ml): 8.33 Log10 CFU/ml | Bacterial count (Log10 CFU/ml) 4 hour ([2]; agent alone 4 mcg/ml): 8.54 Log10 CFU/ml | Bacterial count (Log10 CFU/ml) 6 hour ([2]; agent alone 4 mcg/ml): 9.20 Log10 CFU/ml | Bacterial count (Log10 CFU/ml) 8 hour ([2]; agent alone 4 mcg/ml): 8.65 Log10 CFU/ml | Change in Log10 CFU/ml over 0 hour count after 8 hours [2, 3]: 1.51 Log10 CFU/ml | Effect on bacterial counts when used alone [2]: did not reduce the bacterial counts

NCCONC(=O)[C@@H]1CC[C@@H]2CN1C(=O)N2OS(=O)(=O)O [Compound of Formula (I), (2S,5R)—N-(2-aminoethoxy)-7-oxo-6-(sulfoxy)-1,6-diazabicyclo[3.2.1]octane-2-carboxamide]
Bacterial count (Log10 CFU/ml) 0 hour ([1]; agent alone 4 mcg/ml): 7.18 Log10 CFU/ml | Bacterial count (Log10 CFU/ml) 2 hour ([1]; agent alone 4 mcg/ml): 7.98 Log10 CFU/ml | Bacterial count (Log10 CFU/ml) 4 hour ([1]; agent alone 4 mcg/ml): 8 Log10 CFU/ml | Bacterial count (Log10 CFU/ml) 6 hour ([1]; agent alone 4 mcg/ml): 8.37 Log10 CFU/ml | Bacterial count (Log10 CFU/ml) 8 hour ([1]; agent alone 4 mcg/ml): 8.04 Log10 CFU/ml | Change in Log10 CFU/ml over 0 hour count after 8 hours ([1]; agent alone 4 mcg/ml): 0.86 Log10 CFU/ml | Effect on bacterial counts when used alone [1]: did not reduce the bacterial counts | Bacterial count (Log10 CFU/ml) 0 hour ([2]; agent alone 4 mcg/ml): 7.14 Log10 CFU/ml | Bacterial count (Log10 CFU/ml) 2 hour ([2]; agent alone 4 mcg/ml): 6.40 Log10 CFU/ml | Bacterial count (Log10 CFU/ml) 4 hour ([2]; agent alone 4 mcg/ml): 5.32 Log10 CFU/ml | Bacterial count (Log10 CFU/ml) 6 hour ([2]; agent alone 4 mcg/ml): 5.32 Log10 CFU/ml | Bacterial count (Log10 CFU/ml) 8 hour ([2]; agent alone 4 mcg/ml): 5.34 Log10 CFU/ml | Change in Log10 CFU/ml over 0 hour count after 8 hours [2, 3]: −1.8 Log10 CFU/ml | Effect on bacterial counts when used alone [2]: did not reduce the bacterial counts

C[C@@H](O)[C@H]1C(=O)N2C(C(=O)O)=C(SCCN=CN)C[C@H]12 [Imipenem]
Bacterial count (Log10 CFU/ml) 0 hour ([1]; 8 mcg/ml alone): 7.18 Log10 CFU/ml | Bacterial count (Log10 CFU/ml) 2 hour ([1]; 8 mcg/ml alone): 8.10 Log10 CFU/ml | Bacterial count (Log10 CFU/ml) 4 hour ([1]; 8 mcg/ml alone): 8.81 Log10 CFU/ml | Bacterial count (Log10 CFU/ml) 6 hour ([1]; 8 mcg/ml alone): 8.70 Log10 CFU/ml | Bacterial count (Log10 CFU/ml) 8 hour ([1]; 8 mcg/ml alone): 9.11 Log10 CFU/ml | Change in Log10 CFU/ml over 0 hour count after 8 hours ([1]; 8 mcg/ml alone): 1.93 Log10 CFU/ml | Bacterial count (Log10 CFU/ml) 0 hour ([2]; 1 mcg/ml alone): 7.14 Log10 CFU/ml | Bacterial count (Log10 CFU/ml) 2 hour ([2]; 1 mcg/ml alone): 4.25 Log10 CFU/ml | Bacterial count (Log10 CFU/ml) 4 hour ([2]; 1 mcg/ml alone): 4.60 Log10 CFU/ml | Bacterial count (Log10 CFU/ml) 6 hour ([2]; 1 mcg/ml alone): 6.04 Log10 CFU/ml | Bacterial count (Log10 CFU/ml) 8 hour ([2]; 1 mcg/ml alone): 7.34 Log10 CFU/ml | Change in Log10 CFU/ml over 0 hour count after 8 hours ([2]; 1 mcg/ml alone, positive = increase): 0.2 Log10 CFU/ml
